Assay results from patent US10487092B2, “Pyrazolopyridinamines as MKNK1 and MKNK2 inhibitors” (BAYER PHARMA AKTIENGESELLSCHAFT, priority 2014, dated 2019).
Read-outs that look alike come from different tables or passages of the source.

Target: human full-length MKNK1 (Homo sapiens (Human), UniProt Q9BUB5, T344D)
Assay: MKNK1 kinase high ATP assay (TR-FRET)
Format: biochemical
Procedure: MKNK1 Kinase High ATP Assay
MKNK1-inhibitory activity at high ATP of compounds of the present invention after their preincubation with MKNK1 was quantified employing the TR-FRET-based MKNK1 high ATP assay as described in the following paragraphs.
A recombinant fusion protein of Glutathione-S-Transferase (GST, N-terminally) and human full-length MKNK1 (amino acids 1-424 and T344D of accession number BAA 19885.1), expressed in insect cells using baculovirus expression system and purified via glutathione sepharose affinity chromatography, was purchased from Carna Biosciences (product no 02-145) and used as enzyme. As substrate for the kinase reaction the biotinylated peptide biotin-Ahx-IKKRKLTRRKSLKG (SEQ ID NO: 1, C-terminus in amide form) was used, which can be purchased e.g. from the company Biosyntan (Berlin-Buch, Germany).
For the assay 50 nL of a 100 fold concentrated solution of the test compound in DMSO was pipetted into a black low volume 384 well microtiter plate (Greiner Bio-One, Frickenhausen, Germany), 2 μL of a solution of MKNK1 in aqueous assay buffer [50 mM HEPES pH 7.5, 5 mM MgCl2, 1.0 mM dithiothreitol, 0.005% (v/v) Nonidet-P40 (Sigma)] was added and the mixture was incubated for 15 min at 22° C. to allow pre-binding of the test compounds to the enzyme before the start of the kinase reaction. Then the kinase reaction was started by the addition of 3 μL of a solution of adenosine-tri-phosphate (ATP, 3.3 mM=>final conc. in the 5 μL assay volume is 2 mM) and substrate (0.1 μM=>final conc. in the 5 μL assay volume is 0.06 μM) in assay buffer and the resulting mixture was incubated for a reaction time of 30 min at 22° C. The concentration of MKNK1 was adjusted depending of the activity of the enzyme lot and was chosen appropriate to have the assay in the linear range, typical concentrations were in the range of 0.003 μg/mL. The reaction was stopped by the addition of 5 μL of a solution of TR-FRET detection reagents (5 nM streptavidine-XL665 [Cisbio Bioassays, Codolet, France] and 1 nM anti-ribosomal protein S6 (pSer236)-antibody from Invitrogen [#44921G] and 1 nM LANCE EU-W1024 labeled ProteinG [Perkin-Elmer, product no. AD0071]) in an aqueous EDTA-solution (100 mM EDTA, 0.1% (w/v) bovine serum albumin in 50 mM HEPES pH 7.5).
The resulting mixture was incubated for 1 h at 22° C. to allow the formation of complex between the phosphorylated biotinylated peptide and the detection reagents. Subsequently the amount of phosphorylated substrate was evaluated by measurement of the resonance energy transfer from the Eu-chelate to the streptavidine-XL. Therefore, the fluorescence emissions at 620 nm and 665 nm after excitation at 350 nm were measured in a TR-FRET reader, e.g. a Rubystar (BMG Labtechnologies, Offenburg, Germany) or a Viewlux (Perkin-Elmer). The ratio of the emissions at 665 nm and at […] was taken as the measure for the amount of phosphorylated substrate. The data were normalised (enzyme reaction without inhibitor=0% inhibition, all other assay components but no enzyme=100% inhibition).

[1] = high ATP (2 mM), 15 min preincubation with enzyme, read-out: MKNK1 IC50

Chain of human full-length MKNK1 (Q9BUB5 other isoform, or with tags, fused parts or gaps T344D): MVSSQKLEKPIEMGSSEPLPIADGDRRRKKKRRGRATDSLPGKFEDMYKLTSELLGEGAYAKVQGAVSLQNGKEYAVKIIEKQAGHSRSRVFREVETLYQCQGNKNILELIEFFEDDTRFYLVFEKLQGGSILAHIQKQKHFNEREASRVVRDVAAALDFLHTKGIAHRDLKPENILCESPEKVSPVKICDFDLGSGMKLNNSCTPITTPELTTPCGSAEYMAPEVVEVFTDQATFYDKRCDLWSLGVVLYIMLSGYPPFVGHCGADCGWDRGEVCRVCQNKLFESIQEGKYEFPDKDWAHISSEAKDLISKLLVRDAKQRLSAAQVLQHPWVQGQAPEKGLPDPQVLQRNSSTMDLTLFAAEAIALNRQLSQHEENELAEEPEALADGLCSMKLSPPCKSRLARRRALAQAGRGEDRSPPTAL

| SMILES | IC50 [1] | IC50 |
| --- | --- | --- |
| O=C([C@H]1CCc2c(sc3ncnc(Nc4ccn5nccc5c4)c23)C1)N1CC(O)C1 [Example 24, (3-Hydroxyazetidin-1-yl)[(7S)-4-(pyrazolo[1,5-a]pyridin-5-ylamino)-5,6,7,8-tetrahydro[1]benzothieno[2,3-d]pyrimidin-7-yl]methanone] | 0.02 µM | – |
| CN(CCNC(=O)OC(C)(C)C)C(=O)[C@H]1CCc2c(sc3ncnc(Nc4ccn5nccc5c4)c23)C1 [Example 25, tert-Butyl [2-(methyl{[(7S)-4-(pyrazolo[1,5-a]pyridin-5-ylamino)-5,6,7,8-tetrahydro[1]benzothieno[2,3-d]pyrimidin-7-yl]carbonyl}amino)ethyl]carbamate] | 0.013 µM | – |
| CN(C)C(=O)CN(C)C(=O)[C@H]1CCc2c(sc3ncnc(Nc4ccn5nccc5c4)c23)C1 [Example 26, (7S)—N-[2-(Dimethylamino)-2-oxoethyl]-N-methyl-4-(pyrazolo[1,5-a]pyridin-5-ylamino)-5,6,7,8-tetrahydro[1]benzothieno[2,3-d]pyrimidine-7-carboxamide] | 0.014 µM | – |
| CN(C)C1CN(C(=O)[C@H]2CCc3c(sc4ncnc(Nc5ccn6nccc6c5)c34)C2)C1 [Example 28, [3-(Dimethylamino)azetidin-1-yl][(7S)-4-(pyrazolo[1,5-a]pyridin-5-ylamino)-5,6,7,8-tetrahydro[1]benzothieno[2,3-d]pyrimidin-7-yl]methanone] | 0.019 µM | – |
| CN1CCN(C(=O)[C@H]2CCc3c(sc4ncnc(Nc5ccn6nccc6c5)c34)C2)CC1 [Example 29, (4-Methylpiperazin-1-yl)[(7S)-4-(pyrazolo[1,5-a]pyridin-5-ylamino)-5,6,7,8-tetrahydro[1]benzothieno[2,3-d]pyrimidin-7-yl]methanone] | 0.02 µM | – |
| CC1(O)CN(C(=O)[C@H]2CCc3c(sc4ncnc(Nc5ccn6nccc6c5)c34)C2)C1 [Example 30, (3-Hydroxy-3-methylazetidin-1-yl)[(7S)-4-(pyrazolo[1,5-a]pyridin-5-ylamino)-5,6,7,8-tetrahydro[1]benzothieno[2,3-d]pyrimidin-7-yl]methanone] | 0.016 µM | – |
| CN(C)CCN1CCN(C(=O)[C@H]2CCc3c(sc4ncnc(Nc5ccn6nccc6c5)c34)C2)CC1 [Example 31, {4-[2-(Dimethylamino)ethyl]piperazin-1-yl}[(7S)-4-(pyrazolo[1,5-a]pyridin-5-ylamino)-5,6,7,8-tetrahydro[1]benzothieno[2,3-d]pyrimidin-7-yl]methanone] | 0.026 µM | – |
| O=C1CCN(C(=O)[C@H]2CCc3c(sc4ncnc(Nc5ccn6nccc6c5)c34)C2)CC1 [Example 33, 1-{[(7S)-4-(Pyrazolo[1,5-a]pyridin-5-ylamino)-5,6,7,8-tetrahydro[1]benzothieno[2,3-d]pyrimidin-7-yl]carbonyl}piperidin-4-one] | – | 0.096 µM |
| O=C([C@H]1CCc2c(sc3ncnc(Nc4ccn5nccc5c4)c23)C1)N1CCC(F)(F)C1 [Example 34, (3,3-Difluoropyrrolidin-1-yl)[(7S)-4-(pyrazolo[1,5-a]pyridin-5-ylamino)-5,6,7,8-tetrahydro[1]benzothieno[2,3-d]pyrimidin-7-yl]methanone] | 0.071 µM | – |
| O=C([C@H]1CCc2c(sc3ncnc(Nc4ccn5nccc5c4)c23)C1)N1CC2(COC2)C1 [Example 35, 2-Oxa-6-azaspiro[3.3]hept-6-yl[(7S)-4-(pyrazolo[1,5-a]pyridin-5-ylamino)-5,6,7,8-tetrahydro[1]benzothieno[2,3-d]pyrimidin-7-yl]methanone] | 0.075 µM | – |
| O=C([C@H]1CCc2c(sc3ncnc(Nc4ccn5nccc5c4)c23)C1)N1C[C@@H]2C[C@H]1CO2 [Example 36, (1S,4S)-2-Oxa-5-azabicyclo[2.2.1]hept-5-yl[(7S)-4-(pyrazolo[1,5-a]pyridin-5-ylamino)-5,6,7,8-tetrahydro[1]benzothieno[2,3-d]pyrimidin-7-yl]methanone] | 0.091 µM | – |
| O=C([C@H]1CCc2c(sc3ncnc(Nc4ccn5nccc5c4)c23)C1)N1C[C@H]2C[C@@H]1CO2 [Example 37, (1R,4R)-2-Oxa-5-azabicyclo[2.2.1]hept-5-yl[(7S)-4-(pyrazolo[1,5-a]pyridin-5-ylamino)-5,6,7,8-tetrahydro[1]benzothieno[2,3-d]pyrimidin-7-yl]methanone] | 0.056 µM | – |
| CN1C[C@@H]2C[C@H]1CN2C(=O)[C@H]1CCc2c(sc3ncnc(Nc4ccn5nccc5c4)c23)C1 [Example 38, [(1S,4S)-5-Methyl-2,5-diazabicyclo[2.2.1]hept-2-yl][(7S)-4-(pyrazolo[1,5-a]pyridin-5-ylamino)-5,6,7,8-tetrahydro[1]benzothieno[2,3-d]pyrimidin-7-yl]methanone] | 0.025 µM | – |
| CN(C)CCN(C)C1CCN(C(=O)[C@H]2CCc3c(sc4ncnc(Nc5ccn6nccc6c5)c34)C2)CC1 [Example 40, (4-{[2-(Dimethylamino)ethyl](methyl)amino}piperidin-1-yl)[(7S)-4-(pyrazolo[1,5-a]pyridin-5-ylamino)-5,6,7,8-tetrahydro[1]benzothieno[2,3-d]pyrimidin-7-yl]methanone] | 0.006 µM | – |
| CN1C[C@H]2C[C@@H]1CN2C(=O)[C@H]1CCc2c(sc3ncnc(Nc4ccn5nccc5c4)c23)C1 [Example 42, [(1R,4R)-5-Methyl-2,5-diazabicyclo[2.2.1]hept-2-yl][(7S)-4-(pyrazolo[1,5-a]pyridin-5-ylamino)-5,6,7,8-tetrahydro[1]benzothieno[2,3-d]pyrimidin-7-yl]methanone] | 0.011 µM | – |
| O=C(NCCC(F)(F)F)[C@H]1CCc2c(sc3ncnc(Nc4cc5ccnn5cc4Cl)c23)C1 [Example 43, (7S)-4-[(6-Chloropyrazolo[1,5-a]pyridin-5-yl)amino]-N-(3,3,3-trifluoropropyl)-5,6,7,8-tetrahydro[1]benzothieno[2,3-d]pyrimidine-7-carboxamide] | 0.035 µM | – |
| CC(C)NC(=O)[C@H]1CCc2c(sc3ncnc(Nc4cc5ccnn5cc4Cl)c23)C1 [Example 44, (7S)-4-[(6-Chloropyrazolo[1,5-a]pyridin-5-yl)amino]-N-(propan-2-yl)-5,6,7,8-tetrahydro[1]benzothieno[2,3-d]pyrimidine-7-carboxamide] | 0.054 µM | – |
| CN(C)C(=O)[C@H]1CCc2c(sc3ncnc(Nc4cc5ccnn5cc4Cl)c23)C1 [Example 45, (7S)-4-[(6-Chloropyrazolo[1,5-a]pyridin-5-yl)amino]-N,N-dimethyl-5,6,7,8-tetrahydro[1]benzothieno[2,3-d]pyrimidine-7-carboxamide] | 0.012 µM | – |
| CCN(C)C(=O)[C@H]1CCc2c(sc3ncnc(Nc4cc5ccnn5cc4Cl)c23)C1 [Example 46, (7S)-4-[(6-Chloropyrazolo[1,5-a]pyridin-5-yl)amino]-N-ethyl-N-methyl-5,6,7,8-tetrahydro[1]benzothieno[2,3-d]pyrimidine-7-carboxamide] | 0.011 µM | – |
| CN(CC(F)F)C(=O)[C@H]1CCc2c(sc3ncnc(Nc4cc5ccnn5cc4Cl)c23)C1 [Example 47, (7S)-4-[(6-Chloropyrazolo[1,5-a]pyridin-5-yl)amino]-N-(2,2-difluoroethyl)-N-methyl-5,6,7,8-tetrahydro[1]benzothieno[2,3-d]pyrimidine-7-carboxamide] | 0.018 µM | – |
| CN(CCC(F)(F)F)C(=O)[C@H]1CCc2c(sc3ncnc(Nc4cc5ccnn5cc4Cl)c23)C1 [Example 48, (7S)-4-[(6-Chloropyrazolo[1,5-a]pyridin-5-yl)amino]-N-methyl-N-(3,3,3-trifluoropropyl)-5,6,7,8-tetrahydro[1]benzothieno[2,3-d]pyrimidine-7-carboxamide] | 0.035 µM | – |
| CCCCN(C)C(=O)[C@H]1CCc2c(sc3ncnc(Nc4cc5ccnn5cc4Cl)c23)C1 [Example 49, (7S)—N-Butyl-4-[(6-chloropyrazolo[1,5-a]pyridin-5-yl)amino]-N-methyl-5,6,7,8-tetrahydro[1]benzothieno[2,3-d]pyrimidine-7-carboxamide] | 0.015 µM | – |
| N#CC1CN(C(=O)[C@H]2CCc3c(sc4ncnc(Nc5cc6ccnn6cc5Cl)c34)C2)C1 [Example 50, 1-((7S)-4-[(6-Chloropyrazolo[1,5-a]pyridin-5-yl)amino]-5,6,7,8-tetrahydro[1]benzothieno[2,3-d]pyrimidin-7-ylcarbonyl)azetidine-3-carbonitrile] | 0.007 µM | – |
